{"source": "patent US20230098569A1", "about": "“METHODS OF CONTROLLING OR PREVENTING INFESTATION OF PLANTS BY THE PHYTOPATHOGENIC MICROORGANISM CORYNESPORA CASSIICOLA” (SYNGENTA CROP PROTECTION AG, priority 2020, published 2023)", "tested_on": "Corynespora cassiicola", "assay": "Corynespora cassiicola liquid culture growth inhibition (PDB, 96-well microtiter plate, photometric at 620 nm)", "format": "cell-based", "details": "24 C, 3-4 days, compared to untreated control", "description": "Conidia of the fungus from cryogenic storage were directly mixed into nutrient broth (PDB potato dextrose broth). A DMSO solution of the test compounds was placed into a microtiter plate (96-well format) and the nutrient broth containing the fungal spores was added to it. The test plates were incubated at 24 C and the inhibition of growth (% control of Corynespora cassiicola) was determined photometrically after 3-4 days at 620 nm. The activity of a compound is derived by comparing the inhibition of growth in the treated test solution to the growth in the untreated check. The concentration of the compounds was 6.7, 2.2, 0.74, 0.25, 0.082 and 0.027 ppm."}
{"smiles": "Cc1cccc2c1ncn2C1=NC(C)(C)C(F)(F)c2ccccc21", "note": "[Compound 1]", "values": [{"measurement": "inhibition at 6.7 ppm", "result": "≥ 70", "unit": "%"}]}
{"smiles": "Cc1ccc2c(ncn2C2=NC(C)(C)C(F)(F)c3ccccc32)c1C", "note": "[Compound 2]", "values": [{"measurement": "inhibition at 6.7 ppm", "result": "≥ 70", "unit": "%"}]}
{"smiles": "Cc1c(F)ccc2c1ncn2C1=NC(C)(C)C(F)(F)c2ccccc21", "note": "[Compound 3]", "values": [{"measurement": "inhibition at 6.7 ppm", "result": "≥ 70", "unit": "%"}]}
{"smiles": "Cc1ccc2c(ncn2C2=NC(C)(C)C(F)(F)c3c(F)cccc32)c1C", "note": "[Compound 4]", "values": [{"measurement": "inhibition at 6.7 ppm", "result": "≥ 70", "unit": "%"}]}
{"smiles": "Cc1cccc2c1ncn2C1=NC(C)(C)C(F)(F)c2cc(Cl)ccc21", "note": "[Compound 5]", "values": [{"measurement": "inhibition at 6.7 ppm", "result": "≥ 70", "unit": "%"}]}
{"smiles": "CC1(C)N=C(n2cnc3c4c(ccc32)CCC4)c2ccccc2C1(F)F", "note": "[Compound 6]", "values": [{"measurement": "inhibition at 6.7 ppm", "result": "≥ 70", "unit": "%"}]}
